Results on one compound are retold here after paper PMC3646888 (PLoS ONE, 2013).

“Also recorded” adds a separate entry of the source. Read-outs that look alike come from different tables or passages of the source.

Type in all cases: in vitro ADME
The target of one data set is T1, CYP19A1h (Homo sapiens, UniProt P11511).
T1 sequence (P11511 1-503): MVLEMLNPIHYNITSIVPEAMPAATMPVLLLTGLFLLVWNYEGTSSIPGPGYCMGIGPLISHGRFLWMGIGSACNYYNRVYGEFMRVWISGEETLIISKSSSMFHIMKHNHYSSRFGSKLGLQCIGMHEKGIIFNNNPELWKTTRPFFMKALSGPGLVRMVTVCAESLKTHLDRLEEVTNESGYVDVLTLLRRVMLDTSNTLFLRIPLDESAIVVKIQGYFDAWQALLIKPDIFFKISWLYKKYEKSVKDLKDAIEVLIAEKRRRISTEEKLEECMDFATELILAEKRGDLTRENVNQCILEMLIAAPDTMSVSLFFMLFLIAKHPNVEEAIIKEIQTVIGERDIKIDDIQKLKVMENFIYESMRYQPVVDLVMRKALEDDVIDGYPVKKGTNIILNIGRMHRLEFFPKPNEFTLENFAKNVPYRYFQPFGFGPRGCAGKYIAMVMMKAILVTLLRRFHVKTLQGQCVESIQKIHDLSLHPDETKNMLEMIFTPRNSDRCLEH
The data set is described as follows: Fluorescence-based CYP assay, recombinant CYP19A1h, substrate DBF. On the procedure:
(§1) These assays were performed by methods similar to those described by VanAlstine and Hough, Stresser et al., Wulff et al., Henderson et al., and Crespi et al., with minor modifications. All incubations were performed in a final volume of 200 µL of 50 mM potassium phosphate buffer at pH 7.4 containing 1% acetonitrile. CYP inhibitor studies were performed according to the parameters of Table 1. Substrate concentrations were chosen to be near known Km values. As described in the references cited, two different NADPH regenerating systems were used depending on the substrates used (Table 1). […] Samples were pre-incubated at 37°C for the designated times, and the reactions were initiated with the addition of a substrate and enzyme mixtures (Table 1). […] For the assays utilizing the “high” regenerating system, enzyme reactions were terminated at the designated time by the addition of 75 µL of 2N NaOH, followed by a 2 h post-incubation at 37°C. Product formation was then measured at the designated wavelengths (Table 1). For the “low” regenerating system assays, blanks and standards were prepared in 0.1 mL buffer without the regenerating system. For the “high” regenerating system assays, blanks and standards containing 0.1 mL of buffer received 75 µL of 2N NaOH following pre-incubation.

Data set [1] addresses T2, CYP3A4 (Homo sapiens, UniProt P08684). The data set is described as follows: Fluorescence-based CYP3A4 assay with BFC as substrate. On the procedure:
as §1

Data set [2] has as its target T2, CYP3A4. The data set is described as follows: CYP3A4 assay with LVS as substrate (LC-MS/MS). The settings on record: for IC50 at 20 min: human; for IC50: substrate LVS 10 µM. On the procedure:
CYP3A4-containing Supersomes (2 pmol) were incubated with LVS (10 µM) in a 200 µl reaction mixture containing 0.1 M potassium phosphate buffer, pH 7.4, 1.0 mM NADPH, and 3 mM MgCl2 for 20 min at 37°C. The reaction was initiated by the addition of NADPH, and terminated by the addition of 400 µL of acetonitrile to the reaction mixture. Samples were extracted and analyzed for the two major LVS metabolites 6′β-hydroxy LVS and 6′-exomethylene LVS by LC-MS-MS exactly as described.

T2 sequence (P08684 whole entry): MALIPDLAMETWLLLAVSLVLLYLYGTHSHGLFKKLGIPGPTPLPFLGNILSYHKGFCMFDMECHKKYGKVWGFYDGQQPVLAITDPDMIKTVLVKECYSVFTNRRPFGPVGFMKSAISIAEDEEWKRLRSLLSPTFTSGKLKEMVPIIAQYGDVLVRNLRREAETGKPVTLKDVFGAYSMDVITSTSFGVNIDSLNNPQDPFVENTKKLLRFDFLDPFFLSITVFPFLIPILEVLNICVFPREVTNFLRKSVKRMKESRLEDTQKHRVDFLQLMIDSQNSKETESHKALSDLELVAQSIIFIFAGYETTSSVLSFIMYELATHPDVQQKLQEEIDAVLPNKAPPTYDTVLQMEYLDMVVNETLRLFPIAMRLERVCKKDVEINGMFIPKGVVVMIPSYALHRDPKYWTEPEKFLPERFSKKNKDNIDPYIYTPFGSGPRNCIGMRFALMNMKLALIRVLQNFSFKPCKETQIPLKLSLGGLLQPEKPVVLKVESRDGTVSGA

On to `Clc1ccccc1C(c1ccccc1)(c1ccccc1)n1cccn1` [TRAM-34, 1-[(2-chlorophenyl)diphenylmethyl]-1H-pyrazole], for which the IC50 – broadly, the concentration at which inhibition is half-maximal – was over 80000 nM on CYP19A1h; about 1000 nM at CYP3A4 [2] (read-out: IC50, formation of 6′-exomethylene LVS by CYP3A4); about 1000 nM at CYP3A4 [2] (read-out: IC50, formation of 6′β-hydroxy LVS by CYP3A4). Also, on CYP19A1h (up to 80 µM), the “Inhibition of CYP19A1h (in words)” value is “little to no inhibition; also recorded: no inhibitory effects”. Also, the “Effect on CYP3A4 activity with BFC (in words)” value on CYP3A4 [1] (substrate BFC) is listed as “concentration-dependent stimulation”. Also, at CYP3A4 [1] (substrate BFC 50 µM, maximum stimulation), the “Magnitude of stimulation of CYP3A4 with BFC” value is about 200%. In addition, the IC50 at 20 min stood at 640 nM on CYP3A4 [2] (pH 7.4, IC50, formation of 6′-exomethylene LVS by CYP3A4, substrate LVS 10 µM) and 920 nM against CYP3A4 [2] (pH 7.4, IC50, formation of 6′β-hydroxy LVS by CYP3A4, substrate LVS 10 µM).
